The record followed here is patent publication US9040544B2, “2,5-substituted oxazolopyrimidine derivatives” (Sanofi, priority 2010, dated 2015).

In the assay the target is T1, human Edg-1 receptor (Homo sapiens, UniProt P21453).
T1 construct: expressed in transfected cells; host or cells: Flp-In-CHO cells, stably transfected; membrane preparation
T1 sequence (P21453 whole entry): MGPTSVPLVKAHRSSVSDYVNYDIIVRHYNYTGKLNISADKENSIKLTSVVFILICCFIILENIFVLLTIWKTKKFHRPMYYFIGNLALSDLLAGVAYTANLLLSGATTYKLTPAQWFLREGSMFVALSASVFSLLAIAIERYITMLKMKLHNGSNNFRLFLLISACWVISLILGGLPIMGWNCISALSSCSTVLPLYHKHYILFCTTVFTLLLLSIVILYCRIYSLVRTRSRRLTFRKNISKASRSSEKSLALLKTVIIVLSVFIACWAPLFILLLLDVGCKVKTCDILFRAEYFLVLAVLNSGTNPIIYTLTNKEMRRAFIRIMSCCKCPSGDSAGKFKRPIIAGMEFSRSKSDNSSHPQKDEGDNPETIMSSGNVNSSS
Kind of assay: GTP-γ-S assay using human Edg-1 receptors (scintillation proximity assay, CHO Flp-In cell membrane preparation). As to conditions: test compound at 10 μM; 10 μM S1P regarded as 100% activation; background-corrected; triplicate; read-out: % Activation (Edg-1 receptor activation in percent of the activation by 10 μM S1P). In kind it is biochemical. An excerpt: A) GTP-γ-S assay using human Edg-1 receptors
In order to determine the Edg-1 receptor activation by the compounds of the invention, a GTP-γ-S (guanosine 5′-[thio]triphosphate) assay for G-protein coupled receptor binding based on the scintillation proximity assay principle was used, employing a cell membrane preparation from a CHO Flp-In cell line which constitutively overexpresses the human Edg-1 receptor.
(a) Cell line generation The Flp-In™ expression system (Invitrogen, cat. no. K6010-01) allows the generation of stable mammalian cell lines into which the gene of interest has been integrated through homologous recombination at a specific genomic location called Flp Recombination Target (FRT) site by means of a Flp recombinase encoded by the pOG44 expression plasmid. The integration of the pcDNA5/FRT expression construct into the Flp-In host cell line genome results in the transcription of the gene of interest. The stably transfected cells become hygromycin-resistant.
One day prior to transfection, 200 000 Flp-In-CHO cells were seeded in Ham F-12 medium (Invitrogen, cat. no. 31765) supplemented with 10% fetal calf serum (FCS; Perbio Science, cat. no. SH30068.03) in a 6-well plate and incubated at 37° C./5% CO2 overnight. Using the FuGENE® 6 transfection reagent (Roche, cat. no. 11988387001), cells were cotransfected with the Flp recombinase expression plasmid pOG44 and a modified plasmid additionally containing the edg-1 gene (accession no. NM_001400) termed as pcDNA5-FRT-TO_nFLAG_DEST-EDG-1 with a 9:1 ratio. To obtain the modified pcDNA5-FRT-TO_nFLAG_DEST plasmid, the Invitrogen plasmid pcDNA5/FRT/TO (Invitrogen, cat. no. V6520-20) was adapted to the Gateway® (Invitrogen) cloning system by inserting a Gateway cassette containing attR recombination sites flanking a ccdB gene and a chloramphenicol-resistance gene (Gateway conversion system, Invitrogen, cat. no. 11828-029). In addition a FLAG tag epitope was added before the 5′ att recombination site to allow recombinant expression of N-terminally FLAG-tagged proteins.
For the transfection of one well, 1.08 μg of pOG44 and 0.12 μg of pcDNA5-FRT-TO_nFLAG_DEST-EDG-1 were mixed to 100 μl of serum-free Ham F-12 medium containing 6 μl of FuGENE® 6 transfection reagent. After 20 min of incubation, the transfection reagent/DNA complex was distributed dropwise on the cells. The cells were incubated for 24 h at 37° C. Then the cells from 3 wells were transferred to a T75 flask (Greiner Cellstar®, cat. no. 658175) containing Ham F-12 medium supplemented with 10% of FCS but without antibiotic and were incubated another 24 h. 48 h after transfection, the medium was replaced by selection medium (Ham F-12 supplemented with 10% of FCS and 300 μg/ml of hygromycin B (Invitrogen, cat. no. 10687-010)). The medium was exchanged every 2 to 3 days until a resistant population of cells had grown. […] After 2 weeks of selection, the cells were transferred into T175 flasks (Greiner Cellstar®, cat. no. 660175) and cultivated for batch production. Cells were harvested from the culture flasks by short treatment (2 to 5 min) with Accutase (PAA, cat. no. L11-007), resuspended in selection medium (see above) and centrifuged at 200×g for 5 min. Cells were resuspended in a mixture of 90% of FCS and 10% of dimethylsulfoxide and stored frozen in liquid nitrogen.
A membrane preparation was obtained by standard methods from the afore-described CHO Flp-ln cell line constitutively overexpressing the human Edg-1 receptor. Briefly, the cryopreserved cells were taken in culture and grown until confluency in T175 cell culture flasks (Becton Dickinson, cat. no. 35 5001). […]
As for `Cc1cc(-c2nc3cnc(Oc4ccccc4F)nc3o2)ccc1O` [Example 7, 4-[5-(2-fluoro-phenoxy)-oxazolo[5,4-d]pyrimidin-2-yl]-2-methyl-phenol], the activation at 10 µM was determined as 115%.

As to `COc1ccc(-c2nc3cnc(Oc4ccccc4F)nc3o2)cc1C` [Example 5, 5-(2-fluoro-phenoxy)-2-(4-methoxy-3-methyl-phenyl)-oxazolo[5,4-d]pyrimidine], the activation at 10 µM was 42%. With `Cc1cc(-c2nc3cnc(Oc4ccccc4F)nc3o2)cc(C)c1O` [Example 2, 4-[5-(2-Fluoro-phenoxy)-oxazolo[5,4-d]pyrimidin-2-yl]-2,6-dimethyl-phenol], the activation at 10 µM is 115%. The figure for `Cc1cc(-c2nc3cnc(Oc4cccc(F)c4)nc3o2)cc(C(C)C)c1O` [Example 12, 4-[5-(3-fluorophenoxy)-oxazolo[5,4-d]pyrimidin-2-yl]-2-isopropyl-6-methyl-phenol] is 112%. The figure for `Cc1cc(S(C)(=O)=O)ccc1-c1nc2cnc(Oc3ccccc3F)nc2o1` [Example 14, 5-(2-fluorophenoxy)-2-(4-methanesulfonyl-2-methylphenyl)-oxazolo[5,4-d]pyrimidine] is 69%; for `Cc1cc(-c2nc3cnc(Oc4ccccc4F)nc3o2)ccc1S(C)(=O)=O` [Example 13, 5-(2-fluorophenoxy)-2-(4-methanesulfonyl-3-methylphenyl)-oxazolo[5,4-d]pyrimidine] it is 120%; for `COc1c(C)cc(-c2nc3cnc(Oc4ccccc4)nc3o2)cc1C` [Example 8, 2-(4-methoxy-3,5-dimethyl-phenyl)-5-phenoxy-oxazolo[5,4-d]pyrimidine] it is 94%.

In the case of `Oc1ccc(-c2nc3cnc(Oc4ccccc4F)nc3o2)cc1` [Example 4, 4-[5-(2-fluoro-phenoxy)-oxazolo[5,4-d]pyrimidin-2-yl]-phenol], the activation at 10 µM was 83%. For `Cc1cc(-c2nc3cnc(Oc4cccnc4)nc3o2)cc(C)c1O` [Example 11, 2,6-dimethyl-4-[5-(pyridin-3-yloxy)-oxazolo[5,4-d]pyrimidin-2-yl]-phenol], the activation at 10 µM is 103%. The result for `COc1c(C)cc(-c2nc3cnc(Oc4cccnc4)nc3o2)cc1C` [Example 9, 2-(4-methoxy-3,5-dimethyl-phenyl)-5-(pyridin-3-yloxy)-oxazolo[5,4-d]pyrimidine] reads 87%; that for `COc1ccc(-c2nc3cnc(Oc4ccccc4F)nc3o2)cc1C(F)(F)F` [Example 6, 5-(2-fluoro-phenoxy)-2-(4-methoxy-3-trifluoromethyl-phenyl)-oxazolo[5,4-d]pyrimidine], 87%; that for `COc1c(C)cc(-c2nc3cnc(Oc4ccccc4F)nc3o2)cc1C` [Example 1, 5-(2-Fluoro-phenoxy)-2-(4-methoxy-3,5-dimethyl-phenyl)-oxazolo[5,4-d]pyrimidine], 102%. The figure for `COc1cccc(-c2nc3cnc(Oc4ccccc4F)nc3o2)c1` [Example 3, 5-(2-fluoro-phenoxy)-2-(3-methoxy-phenyl)-oxazolo[5,4-d]pyrimidine] is 95%; for `Oc1ccc(-c2nc3cnc(Oc4ccccc4F)nc3o2)cc1C(F)(F)F` [Example 10, 4-[5-(2-fluoro-phenoxy)-oxazolo[5,4-d]pyrimidin-2-yl]-2-trifluoromethyl-phenol] it is 107%.
